Values joined by “and” are separate entries in the source; they are usually repeats but may differ in a detail not shown here. Equal values may be shown once.
Test: excess molar enthalpy (molar enthalpy of mixing); xn = mol fraction of the nth substance listed
Details: Liquid

O=C=O [carbon dioxide] + O
Details	excess molar enthalpy
323.1 K, 2060 kPa, x1 = 0.0032	-0.0474 kJ/mol
323.1 K, 2060 kPa, x1 = 0.0037	-0.0547 kJ/mol
323.1 K, 2060 kPa, x1 = 0.004	-0.0579 kJ/mol
323.1 K, 2060 kPa, x1 = 0.0042	-0.0638 kJ/mol
323.1 K, 2060 kPa, x1 = 0.0048	-0.0701 kJ/mol
323.1 K, 2060 kPa, x1 = 0.0058	-0.0833 kJ/mol
323.1 K, 2060 kPa, x1 = 0.006	-0.092 kJ/mol
323.1 K, 2060 kPa, x1 = 0.0064	-0.0903 kJ/mol
323.1 K, 2060 kPa, x1 = 0.0079	-0.0925 kJ/mol and -0.093 kJ/mol
323.1 K, 2060 kPa, x1 = 0.0106	-0.0954 kJ/mol
323.1 K, 2060 kPa, x1 = 0.0126	-0.0939 kJ/mol
323.1 K, 2060 kPa, x1 = 0.0158	-0.0955 kJ/mol
323.1 K, 2060 kPa, x1 = 0.021	-0.0932 kJ/mol
323.1 K, 2060 kPa, x1 = 0.0311	-0.094 kJ/mol
323.1 K, 5100 kPa, x1 = 0.0052	-0.0676 kJ/mol
323.1 K, 5100 kPa, x1 = 0.0064	-0.0835 kJ/mol
323.1 K, 5100 kPa, x1 = 0.0084	-0.109 kJ/mol
323.1 K, 5100 kPa, x1 = 0.0092	-0.121 kJ/mol
323.1 K, 5100 kPa, x1 = 0.0101	-0.135 kJ/mol
323.1 K, 5100 kPa, x1 = 0.0105	-0.139 kJ/mol
323.1 K, 5100 kPa, x1 = 0.011	-0.144 kJ/mol
323.1 K, 5100 kPa, x1 = 0.012	-0.156 kJ/mol
323.1 K, 5100 kPa, x1 = 0.0125	-0.165 kJ/mol
323.1 K, 5100 kPa, x1 = 0.0136	-0.172 kJ/mol
323.1 K, 5100 kPa, x1 = 0.0138	-0.175 kJ/mol
323.1 K, 5100 kPa, x1 = 0.0147	-0.179 kJ/mol
323.1 K, 5100 kPa, x1 = 0.0151	-0.185 kJ/mol
323.1 K, 5100 kPa, x1 = 0.0155	-0.183 kJ/mol
323.1 K, 5100 kPa, x1 = 0.0156	-0.188 kJ/mol
323.1 K, 5100 kPa, x1 = 0.0172	-0.183 kJ/mol
323.1 K, 5100 kPa, x1 = 0.0181	-0.185 kJ/mol
323.1 K, 5100 kPa, x1 = 0.019	-0.19 kJ/mol
323.1 K, 5100 kPa, x1 = 0.0201	-0.183 kJ/mol
323.1 K, 5100 kPa, x1 = 0.0208	-0.19 kJ/mol
323.1 K, 5100 kPa, x1 = 0.0254	-0.185 kJ/mol
323.1 K, 10530 kPa, x1 = 0.01	-0.0743 kJ/mol
323.1 K, 10530 kPa, x1 = 0.012	-0.0869 kJ/mol
323.1 K, 10530 kPa, x1 = 0.0132	-0.102 kJ/mol
323.1 K, 10530 kPa, x1 = 0.0165	-0.126 kJ/mol
323.1 K, 10530 kPa, x1 = 0.0197	-0.134 kJ/mol
323.1 K, 10530 kPa, x1 = 0.023	-0.146 kJ/mol
323.1 K, 10530 kPa, x1 = 0.0249	-0.145 kJ/mol
323.1 K, 10530 kPa, x1 = 0.026	-0.155 kJ/mol
323.1 K, 10530 kPa, x1 = 0.0323	-0.154 kJ/mol
323.1 K, 10530 kPa, x1 = 0.0324	-0.154 kJ/mol
323.1 K, 10530 kPa, x1 = 0.0446	-0.151 kJ/mol
323.1 K, 10530 kPa, x1 = 0.0508	-0.15 kJ/mol
323.1 K, 10530 kPa, x1 = 0.0625	-0.148 kJ/mol
323.1 K, 10530 kPa, x1 = 0.0627	-0.149 kJ/mol
323.1 K, 14200 kPa, x1 = 0.0105	-0.0594 kJ/mol
323.1 K, 14200 kPa, x1 = 0.0125	-0.0701 kJ/mol
323.1 K, 14200 kPa, x1 = 0.0139	-0.0789 kJ/mol
323.1 K, 14200 kPa, x1 = 0.0173	-0.0943 kJ/mol
323.1 K, 14200 kPa, x1 = 0.0207	-0.105 kJ/mol
323.1 K, 14200 kPa, x1 = 0.0241	-0.112 kJ/mol
323.1 K, 14200 kPa, x1 = 0.0248	-0.113 kJ/mol
323.1 K, 14200 kPa, x1 = 0.0261	-0.116 kJ/mol
323.1 K, 14200 kPa, x1 = 0.0274	-0.117 kJ/mol
323.1 K, 14200 kPa, x1 = 0.0287	-0.12 kJ/mol
323.1 K, 14200 kPa, x1 = 0.0307	-0.121 kJ/mol
323.1 K, 14200 kPa, x1 = 0.034	-0.119 kJ/mol
323.1 K, 14200 kPa, x1 = 0.047	-0.118 kJ/mol
323.1 K, 14200 kPa, x1 = 0.0658	-0.117 kJ/mol
323.1 K, 20200 kPa, x1 = 0.011	-0.0534 kJ/mol
323.1 K, 20200 kPa, x1 = 0.0147	-0.07 kJ/mol
323.1 K, 20200 kPa, x1 = 0.0183	-0.0864 kJ/mol
323.1 K, 20200 kPa, x1 = 0.0197	-0.0902 kJ/mol
323.1 K, 20200 kPa, x1 = 0.021	-0.0989 kJ/mol
323.1 K, 20200 kPa, x1 = 0.0239	-0.0986 kJ/mol
323.1 K, 20200 kPa, x1 = 0.0253	-0.0994 kJ/mol
323.1 K, 20200 kPa, x1 = 0.0274	-0.103 kJ/mol
323.1 K, 20200 kPa, x1 = 0.0288	-0.104 kJ/mol
323.1 K, 20200 kPa, x1 = 0.0359	-0.104 kJ/mol
323.1 K, 20200 kPa, x1 = 0.0427	-0.105 kJ/mol
323.1 K, 20200 kPa, x1 = 0.0461	-0.104 kJ/mol
323.1 K, 20200 kPa, x1 = 0.0494	-0.105 kJ/mol
323.1 K, 20200 kPa, x1 = 0.0692	-0.103 kJ/mol
373.1 K, 5050 kPa, x1 = 0.002	-0.0129 kJ/mol
373.1 K, 5050 kPa, x1 = 0.0025	-0.0175 kJ/mol
373.1 K, 5050 kPa, x1 = 0.003	-0.0199 kJ/mol
373.1 K, 5050 kPa, x1 = 0.004	-0.0257 kJ/mol
373.1 K, 5050 kPa, x1 = 0.0045	-0.0287 kJ/mol
373.1 K, 5050 kPa, x1 = 0.005	-0.0321 kJ/mol
373.1 K, 5050 kPa, x1 = 0.006	-0.0377 kJ/mol
373.1 K, 5050 kPa, x1 = 0.007	-0.0419 kJ/mol
373.1 K, 5050 kPa, x1 = 0.0075	-0.0456 kJ/mol
373.1 K, 5050 kPa, x1 = 0.008	-0.0467 kJ/mol
373.1 K, 5050 kPa, x1 = 0.009	-0.047 kJ/mol
373.1 K, 5050 kPa, x1 = 0.01	-0.0474 kJ/mol and -0.0461 kJ/mol
373.1 K, 5050 kPa, x1 = 0.011	-0.0471 kJ/mol
373.1 K, 5050 kPa, x1 = 0.0125	-0.0456 kJ/mol
373.1 K, 5050 kPa, x1 = 0.014	-0.0459 kJ/mol
373.1 K, 5050 kPa, x1 = 0.0149	-0.0431 kJ/mol
373.1 K, 5050 kPa, x1 = 0.0154	-0.0445 kJ/mol
373.1 K, 5050 kPa, x1 = 0.0174	-0.0417 kJ/mol
373.1 K, 5050 kPa, x1 = 0.0179	-0.0406 kJ/mol
373.1 K, 5050 kPa, x1 = 0.0198	-0.0393 kJ/mol
373.1 K, 10080 kPa, x1 = 0.0068	-0.0335 kJ/mol
373.1 K, 10080 kPa, x1 = 0.0081	-0.0368 kJ/mol
373.1 K, 10080 kPa, x1 = 0.0094	-0.0436 kJ/mol
373.1 K, 10080 kPa, x1 = 0.0101	-0.0478 kJ/mol
373.1 K, 10080 kPa, x1 = 0.0108	-0.0512 kJ/mol
373.1 K, 10080 kPa, x1 = 0.0134	-0.0613 kJ/mol
373.1 K, 10080 kPa, x1 = 0.0135	-0.0606 kJ/mol
373.1 K, 10080 kPa, x1 = 0.02	-0.0631 kJ/mol
373.1 K, 10080 kPa, x1 = 0.0201	-0.0621 kJ/mol
373.1 K, 10080 kPa, x1 = 0.0228	-0.0594 kJ/mol
373.1 K, 10080 kPa, x1 = 0.0263	-0.0588 kJ/mol
373.1 K, 10080 kPa, x1 = 0.0265	-0.0605 kJ/mol
373.1 K, 10080 kPa, x1 = 0.0294	-0.056 kJ/mol
373.1 K, 10080 kPa, x1 = 0.039	-0.056 kJ/mol
373.1 K, 10080 kPa, x1 = 0.0516	-0.0512 kJ/mol
373.1 K, 19500 kPa, x1 = 0.0037	-0.0067 kJ/mol
373.1 K, 19500 kPa, x1 = 0.0044	-0.0076 kJ/mol
373.1 K, 19500 kPa, x1 = 0.0051	-0.0083 kJ/mol
373.1 K, 19500 kPa, x1 = 0.0059	-0.0094 kJ/mol
373.1 K, 19500 kPa, x1 = 0.0066	-0.0105 kJ/mol
373.1 K, 19500 kPa, x1 = 0.0081	-0.0123 kJ/mol
373.1 K, 19500 kPa, x1 = 0.0087	-0.014 kJ/mol
373.1 K, 19500 kPa, x1 = 0.0088	-0.0137 kJ/mol
373.1 K, 19500 kPa, x1 = 0.0095	-0.0141 kJ/mol
373.1 K, 19500 kPa, x1 = 0.011	-0.0172 kJ/mol
373.1 K, 19500 kPa, x1 = 0.0123	-0.019 kJ/mol
373.1 K, 19500 kPa, x1 = 0.0145	-0.0194 kJ/mol
373.1 K, 19500 kPa, x1 = 0.0146	-0.0206 kJ/mol
373.1 K, 19500 kPa, x1 = 0.0159	-0.0211 kJ/mol
373.1 K, 19500 kPa, x1 = 0.0167	-0.0206 kJ/mol
373.1 K, 19500 kPa, x1 = 0.0181	-0.0232 kJ/mol
373.1 K, 19500 kPa, x1 = 0.0182	-0.0224 kJ/mol
373.1 K, 19500 kPa, x1 = 0.0195	-0.0236 kJ/mol
373.1 K, 19500 kPa, x1 = 0.0217	-0.0226 kJ/mol
373.1 K, 19500 kPa, x1 = 0.0218	-0.0226 kJ/mol
373.1 K, 19500 kPa, x1 = 0.0251	-0.0222 kJ/mol
373.1 K, 19500 kPa, x1 = 0.0253	-0.0225 kJ/mol
373.1 K, 19500 kPa, x1 = 0.0265	-0.022 kJ/mol
373.1 K, 19500 kPa, x1 = 0.03	-0.0204 kJ/mol
373.1 K, 19500 kPa, x1 = 0.0521	-0.0108 kJ/mol
373.1 K, 19500 kPa, x1 = 0.0603	-0.0078 kJ/mol
373.1 K, 19500 kPa, x1 = 0.0688	-0.0036 kJ/mol
373.1 K, 19500 kPa, x1 = 0.0691	-0.0054 kJ/mol
373.1 K, 19500 kPa, x1 = 0.0771	-0.002 kJ/mol

— the NIST ThermoML archive (doi:10.1016/j.fluid.2006.06.006)
